The source of these data is patent US6803191B2, “Candida albicans two-component hybrid kinase gene, CaNik1, and use thereof” (University of Iowa Research Foundation, priority 1997, dated 2004).

Marks after values point to notes of the source that are not given here.

The test concerns homozygous deletion mutant (HH80). Kind of test: Growth of CaNik1 deletion mutant HH80 spot plated on agar plates with supplements (osmotic agents, inhibitors, carbon sources). The class given is cell-based, Candida albicans. As to conditions: for Phenotypic effect in HH80: growth on agar plates: Lee's modified medium or YPD, 2 or 3 days at 25° C. and 37° C.; for Differential sensitivity: growth of mutant strain HH80 versus control strains CAI8 and CAI8U5: agar with modified Lee's medium plus ingredient, 25° C. and 37° C., three independent experiments. As to the method:
Finally, growth of the CaNik1 deletion mutant HH80 was tested at 25° C. and 37° C. for differential sensitivity to osmotic strength and a variety of inhibitors.

As for `OC[C@@H](O)[C@H](O)[C@@H](O)CO` [Xylitol], the “Phenotypic effect in HH80: growth on agar plates” value (from here on “Phenotypic effect in HH80: growth”) (1 M Xylitol) is given as “++++”.

For the molecule `O=S(=O)([O-])[O-].[Mg+2]` [MgSO4], the “Differential sensitivity: growth of mutant strain HH80 versus control strains CAI8 and CAI8U5” value (“Differential sensitivity: growth” below) is listed as “no qualitative differences”. Besides, the “Phenotypic effect in HH80: growth” value (0.5 m MgSO4) is given as “++”.

As for `[Cl-].[K+]` [KCl], the “Differential sensitivity: growth” value is reported as “no qualitative differences”. Moreover, the “Phenotypic effect in HH80: growth” value (1 M KCl) is listed as “++”.

In the case of `[Cl-].[Na+]` [NaCl], the “Differential sensitivity: growth” value was “no qualitative differences”. Further, the “Phenotypic effect in HH80: growth” value (1 M NaCl) is “++”. Also, where the note is “1.5 M NaCl”, the “Phenotypic effect in HH80: growth” value was “+”.

Turning to `O=S(=O)([O-])c1cc(Nc2nc(Nc3ccccc3)nc(N(CCO)CCO)n2)ccc1/C=C/c1ccc(Nc2nc(Nc3ccccc3)nc(N(CCO)CCO)n2)cc1S(=O)(=O)[O-].[Na+].[Na+]` [Calcofluor], the “Differential sensitivity: growth” value is listed as “no qualitative differences”. Besides, the “Phenotypic effect in HH80: growth” value (Calcofluor 20-40 μg/mL) was “+++^v”.

In the case of polymyxin B, the “Differential sensitivity: growth” value was “no qualitative differences”.

As for `Cn1c(=O)c2c(ncn2C)n(C)c1=O` [Caffeine], the “Differential sensitivity: growth” value is recorded as “no qualitative differences”.

Take `OC[C@@H](O)[C@@H](O)[C@H](O)[C@@H](O)CO` [Sorbitol]: the “Differential sensitivity: growth” value is listed as “no qualitative differences”. For the same molecule, for the setting “1.2 M Sorbitol”, the “Phenotypic effect in HH80: growth” value is “++++”.
